The melting point is the temperature of the solid-liquid transition.

Structures are written as SMILES.

Our source for the melting point values is a melting point compilation (Tetko et al.; mined from patent text by program, amines drawn as free bases though some values may be those of a salt).

As for `COc1ccc(CN2CCC(N3Cc4cc(Cl)c(S(N)(=O)=O)cc4C3=O)CC2)cc1`, the melting point is 207 to 210 °C.

With `COc1ccc(CCNC(=O)C(=O)NCc2ccccn2)cc1OC1CCCC1`, the melting point was 141 to 143 °C.

Molecule `CCOC(=O)c1ccc(-c2n[nH]c3ccccc23)cc1` gave a melting point of 133 to 135 °C.

With `COc1cccc(OC)c1-c1cc(C(=O)NC2(C(=O)O)C3CC4CC(C3)CC2C4)nn1-c1ccc(CNC(C)=O)c2ccccc12` (stereo unspecified), the melting point came out at 211 °C.

`CCOC(=O)c1cn([C@@H](C)COS(C)(=O)=O)c2c(F)c(-c3cc(C)nc(C)c3)c(F)cc2c1=O`: the melting point lay within 180 to 183 °C.

Take `CC(C)(C)OC(=O)N[C@H]1COc2ccccc2NC1=O`: the melting point fell in the range of 202 to 203 °C.

As to `O=C(CCCCCOc1ccccc1)c1ccccc1`, the melting point is 53.5 to 54.5 °C.

The molecule `CC(C)=CCNC(=O)CCC(NC(=O)C=Cc1ccco1)C(=O)NCC=C(C)C` (stereo unspecified) yielded a melting point of 199 to 203 °C.

Regarding `CC(CC1=C(c2ccc(O)cc2)CCCNC1=O)N1CCCCC1` (stereo unspecified), the melting point lay within 178 to 181 °C.

As for `CC1=NC(NC(=O)Nc2cccc(C)c2)C(=O)N(CC(=O)N(C)c2ccccn2)c2c(C)cccc21` (stereo unspecified), the melting point is 222 to 224 °C.

Molecule `COC(=O)c1cnc2c3cc(NS(C)(=O)=O)ccc3ncn2c1=O` displayed a melting point of 293 to 296 °C.

In the case of `CC(=O)Nc1ccc(S(=O)c2ccccc2)cc1` (stereo unspecified), the melting point fell in the range of 135 to 137 °C.

Take `Cc1cnc2nc(C(F)(F)F)[nH]c(=O)c2c1`: the melting point fell in the range of 270 to 272 °C.

The molecule `OC(CCN1CCC(c2ccc(F)cc2)CC1)c1ccc(-c2ccccc2)cc1` (stereo unspecified) registered a melting point of 129 to 132 °C.

The molecule `Cc1c(SCCCn2c([N+](=O)[O-])cnc2C)ccnc1CSc1ccncc1` displayed a melting point of 140 to 142 °C.

`CCOc1c(C)cnc(CO)c1C`: the melting point was 58 to 59 °C.

The molecule `COc1ccc(-c2c(C3CCN(C)CC3)[nH]c(=O)c3ccccc23)cc1` displayed a melting point of 209 to 211 °C.

For the molecule `Clc1ncnc(Cl)c1Oc1ccccc1`, the melting point lay within 89 to 90 °C.

In the case of `CNC(=O)c1ccccc1S(=O)(=O)Cc1c(O[C@H](Cn2ccnc2)c2ccccc2)ccc2c1CCCC2=O`, the melting point was in the range of 249 to 251 °C.

`COc1ccccc1Oc1ccccc1N` yielded a melting point of 68 to 70 °C.

On to `CCCCCCCCCCCCCCCCCCOc1cc(OCCCOc2ccc(C(C)(C)C)cc2)cc(N(CC(=O)OC)CC(=O)OC)c1`, for which the melting point is 56 to 58 °C.

In the case of `CNC(=O)C(=C/c1ccccc1)/C(=C\c1cc(OC)c(OC)c(OC)c1)C(=O)OC`, the melting point is 155 to 157 °C.

As for `Cc1cc(Cl)ccc1N=Cc1ccc(Cl)cc1`, the melting point is 75 to 76 °C.

For the molecule `Cc1c(CC(=O)OCCO[N+](=O)[O-])cc(-c2ccc(S(C)(=O)=O)cc2)n1-c1ccccc1`, the melting point lay within 124 to 126 °C.

Regarding `Cc1cc(C)cc(COC[C@@H](NC(=O)OC(C)(C)C)c2ccccc2)c1`, the melting point fell in the range of 46 to 49 °C.

In the case of `CCOC(=O)COc1ccc(CCCOC(=O)NCC2CC2)c(Oc2ncc(C(F)(F)F)cc2Cl)c1`, the melting point is 113 °C.

With `CC(=O)Nc1cc(C(C)(C)C)c(SC2=C(O)CC(CCc3ccc(O)cc3)(C3CCCC3)OC2=O)cc1C` (racemic), the melting point amounted to 181 °C.

The molecule `N#CSCCNc1c(Cl)cccc1[N+](=O)[O-]` returned a melting point of 92 to 94 °C.

The molecule `Cc1nc(NC(=O)c2ccccc2S(C)(=O)=O)sc1C(=O)NCc1ccccc1` displayed a melting point of 239 to 242 °C.

As to `Cc1cc(C)nc(-c2cccc(-c3ccccc3)n2)n1`, the melting point was 117 °C.

Consider `CC(C)(C)OC(=O)Nc1ccc(NC(=O)OC(C)(C)C)c(Br)c1`, for which the melting point turned out to be 130 °C.

As for `O=CNc1ccc(F)c(Cl)c1`, the melting point lay in the range of 94 to 97 °C.

`CSc1nc(N)n2nc(-c3ccco3)nc2n1` showed a melting point of 238 to 240 °C.

For the molecule `CNC(=O)[C@@H](NC(=O)[C@@H](CC(=O)OCc1ccccc1)n1ccc(-c2ccc(-c3ccc(C#N)cc3)cc2)c1)C(C)(C)C`, the melting point stood at 120 °C.

Molecule `CS(=O)(=O)c1ccc(CN2C(=O)C3(COc4cc5c(cc43)OCO5)c3ccccc32)o1` (stereo unspecified) gave a melting point of 177 to 179 °C.

`COc1ccc2c(c1)CCC1C2CCC2(C)C(NCCCCCCCCN)CCC12` (stereo unspecified) came in with a melting point of 47.5 to 49 °C.

`O=C1c2ccccc2C(=O)N1OCC1COCOC1` registered a melting point of 98 to 106 °C.

In turn, `CCCS(=O)(=O)c1cc(C(=O)NCC2CCCN2CC)c(OC)cc1N` (stereo unspecified) gave a melting point of 105 to 106 °C.

`CC(C)CC(NC(=O)OCc1ccccc1)C(=O)NC(Cc1ccc2ccccc2c1)C(=O)CSCc1ccco1` (stereo unspecified): the melting point lay within 103 to 104 °C.

Regarding `O=P(c1ccccc1)(c1ccccc1)c1ccc(F)cc1F`, the melting point was 111 to 112 °C.

Take `COc1cc2c(Nc3ccc(Sc4nccn4C)c(Cl)c3)c(C#N)cnc2cc1NCCCN(C)C`: the melting point lay in the range of 198 to 200 °C.

`CCOC(=O)c1c(C)nn(-c2cccc(C)c2)c1C` gave a melting point of 46.5 to 47.5 °C.

The molecule `CCOC(=O)COc1cccc2oc(-c3ccccc3)cc(=O)c12` yielded a melting point of 89.5 to 90.5 °C.

Take `CCOC(=O)c1ccc(C(Cc2ccc(F)cc2)C(=O)Nc2nc3ccccc3o2)cc1` (stereo unspecified): the melting point lay within 122 to 125 °C.

Turning to `Cc1ccc2[nH]c(C(=O)O)cc2c1O`, the melting point worked out at 262 °C.

For the molecule `CC(C)OC(=O)c1ccc(Cl)cc1S(N)(=O)=O`, the melting point was in the range of 140 to 142 °C.

`CC12CCC3c4ccc(OCc5ccccc5)cc4CCC3C1CCC2=O` (stereo unspecified) had a melting point of 126 to 127 °C.

Molecule `O=C(NCc1ccccc1)c1ccnc(NC(=O)c2cc(F)ccc2Cl)c1` registered a melting point of 180 to 181 °C.

`COc1ccnc(CS(=O)c2nc3cc(Cl)c(Cl)cc3[nH]2)c1C` (stereo unspecified) came in with a melting point of 173 °C.

The molecule `Cn1nc(-c2cc(C=O)c(Cl)cc2F)c(Cl)c1OC(F)F` registered a melting point of 95 to 98 °C.

`O=C(O)c1cc(/C=C/c2ccc(O)cc2)ccc1O` had a melting point of 241 to 243 °C.

In turn, `CCOC(=O)c1cc(F)c(N2CCCC2)nc1Cl` showed a melting point of 95 °C.

Regarding `CNc1nonc1-c1nc2ccccc2n1CC(=O)c1ccc(Cl)cc1`, the melting point was in the range of 210 to 214 °C.

`CC(C)(C)OC(=O)c1ccc(C(=O)OC(C)(C)C)cc1`: the melting point lay within 117 to 118 °C.

Consider `Cc1cc(C(=O)N2CCCC2)ccc1Br`, for which the melting point lay within 55 to 57 °C.

On to `COc1ccc2c(O)n[nH]c2c1OC`, for which the melting point was found to be 175 °C.

For `Cc1cc(C(=O)O)c(Cl)c([N+](=O)[O-])c1C`, the melting point is 160 to 163 °C.

Molecule `N#CSc1nc(I)ncc1Cl` gave a melting point of 183 to 186 °C.

Molecule `O=S(=O)(c1ccc(Br)cc1)N1CCCC1c1ccc(F)cc1` (racemic) had a melting point of 131 °C.

Take `CC(=O)Nc1ccc2c(c1)C(C)(C)CCC2(C)C`: the melting point is 116 to 118 °C.

`COc1ccc(C=C2SCCS2)cc1OC` yielded a melting point of 74 to 75 °C.

Consider `Cc1nc(N2CCN(CCCC(F)(F)F)C2=O)sc1C(=O)NCc1cccnc1`, for which the melting point lay within 167 to 169 °C.

As to `Cc1c(Nc2c(C#N)cnc3sccc23)ccc2[nH]ccc12`, the melting point was found to be 255 °C.

The molecule `Cc1ccnc(C(=O)n2cc(CC(=O)O)c3cc(C)ccc32)c1` yielded a melting point of 220 to 226 °C.

`COc1ccc(C(=O)Cc2ccccc2)c(Cl)c1Cl` registered a melting point of 125 to 127 °C.

Turning to `CC(C)(C)OC(=O)NN(C(=O)OC(C)(C)C)C1(c2cccnc2)CCCCC1=O` (stereo unspecified), the melting point fell in the range of 123 to 125 °C.

For `Cc1cc(C)cc(NCc2ccc3nc(NCC(O)CN4CCOCC4)n(Cc4nc(C)ccc4O)c3c2)c1` (stereo unspecified), the melting point was 198 °C.

Molecule `CC12NCCCN1C(=O)c1ccccc12` (stereo unspecified) had a melting point of 64.5 °C.

`COc1ccccc1Oc1c(NS(=O)(=O)c2c(C)noc2C)nc(-c2ncccn2)nc1OCCOC(=O)Nc1ccccn1` showed a melting point of 217 to 218 °C.

`CCCOc1cc(Cn2[nH]c(N)cc2=O)ccc1Cl`: the melting point is 143 °C.

`CCOP(=O)(O)Cc1nnc2c(=O)[nH]c3cc(C(F)(F)F)ccc3n12` registered a melting point of 276 to 280 °C.

Molecule `COC(=O)c1cc(CCc2cc(OC)ccc2OC)ccc1NC(C)=O` yielded a melting point of 81 to 83 °C.

`CC(C)(C)C(=O)C=Cc1cccnc1`: the melting point lay in the range of 68 to 70 °C.

Molecule `COC(=O)C(C(=O)OC)=C(/C=C/Cl)CCl` came in with a melting point of 56 °C.

The molecule `COC(=O)CCC1CCC(=O)N1` (stereo unspecified) gave a melting point of 52 to 53 °C.

Take `NC1(C(=O)NOCc2ccccc2)CCCC1`: the melting point was in the range of 94 to 96 °C.

Consider `CC(C)(C)OC(=O)N[C@@H]1C(=O)N(C(=O)C(=O)OC(C)(C)C)[C@@H]1CCC(=O)CO[Si](C)(C)C(C)(C)C`, for which the melting point is 102 to 103 °C.

For the molecule `CCOC(=O)c1ccc(-c2ccc(OCCCNC)c(-c3ccc4c(c3)C(C)(C)CCC4(C)C)c2)cc1`, the melting point stood at 141 °C.

In the case of `COc1cc(OCCCN(C)C)ccc1C(=O)NN`, the melting point lay within 47 to 52 °C.

Molecule `COc1c(F)c(F)c(C(=O)c2c(F)c(F)c(F)c(F)c2F)c(OC)c1F` returned a melting point of 49 to 50 °C.

On to `C[C@H](N)Cn1ncc2ccc3oc(C(=O)NCC(C)(C)CO)cc3c21`, for which the melting point was 103 °C.

In turn, `CNc1c2c(nc3ccccc13)CCCC2=O` yielded a melting point of 116 to 117 °C.

Molecule `O=C(Nc1ccc(-n2nc(C(F)(F)F)cc2C(F)(F)F)nc1)c1ccccc1Cl` had a melting point of 156 to 159 °C.

The molecule `COc1cc(OCc2ccncc2)ccc1/C=C/c1cc(/C=C/c2cc3ccccc3[nH]2)n[nH]1` displayed a melting point of 124 to 134 °C.

`O=c1c2cn[nH]c2nc2n1CCS2` registered a melting point above 300 °C.

Take `O=[N+]([O-])c1ccc(-n2nccn2)cc1`: the melting point was 183 to 184 °C.

In turn, `Nc1cc(N2CCN(C(=O)COc3cccc4ccccc34)CC2)nc(N)n1` returned a melting point of 205 to 210 °C.

Take `O=C(O)c1cnc(-c2ccc(NC(=O)C(Cl)Cl)cc2)nc1O`: the melting point was above 310 °C.

The molecule `CCOC(=O)C1=C2NC=C(C(N)=O)C(=O)N2C(C)CC1` (stereo unspecified) had a melting point of 251 °C.

Turning to `Cc1nc(-n2cc(C(F)(F)F)ccc2=O)sc1C(=O)NCc1ccccc1`, the melting point is 148 to 149 °C.

With `NCCNC(=O)CC(CO)c1c(Cl)cccc1Cl` (stereo unspecified), the melting point fell in the range of 127 to 129 °C.
